Read-outs that look alike come from different tables or passages of the source.
Columns and labels:
RBL-2H3 cells = assay: Inhibition of serotonin liberation from IgE-sensitized RBL-2H3 cells after antigen stimulation; assay type: cell-based, rat; conditions: Rattus norvegicus
Outline: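 Rat RBL-2H3 cells labelled with [3H]-serotonin and sensitized with IgE simultaneously, incubated with compound, then challenged with specific antigen. Inhibition derived from [3H]-serotonin released into medium relative to release without compound.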

human basophils = assay: Inhibition of mediator (histamine, peptide leukotriene) liberation from human basophils stimulated with mite antigen; assay type: cell-based; conditions: enzyme immunoassay
Outline: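 Dextran-separated leukocyte fraction containing basophils from heparinized human blood, in D-PBS(+) with 0.1% BSA, pretreated with compound 15 min at 37 °C, then challenged with mite antigen for 10 min. Released histamine and peptide leukotrienes in supernatant quantified by enzyme immunoassay.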

[1] = biological target: T1, IgE receptor γ chain and 72 kDa tyrosine kinase (Rattus norvegicus, UniProt Q64725); assay: Inhibition of binding of IgE receptor γ chain to tyrosine kinase of 72 kDa (kinase phosphorylation in RBL-2H3 lysate or cytosol); assay type: biochemical; conditions: Conc. of Compd. 10 μM
T1 construct: The phosphorylation experiment of the 72 kDa tyrosine kinase contained in the lysate or cytosol; endogenous in cells; host or cells: RBL-2H3 cell lysate (1% NP-40) or cytosolic fraction
Description: RBL-2H3 cells which are a cell line generally used in studying IgE-mediated intracellular signal transduction in mast cells and basophils were used in this study. Tyrosine-phosphorylated peptide in the tyrosine activation motif (TAM) region in the IgE receptor γ chain was synthesized by Peptide Institute.
In the experiment, cell lysates or cytosolic fraction of RBL-2H3 cells were used. Cell lysates were prepared by solubilizing 1×10^7 to 5×10^7 cells with a solution containing various protease inhibitors and 1%-NP-40 as a solubilizer. Separately, the cells were homogenized in a Downs homogenizer and centrifuged at 50,000 rpm for 1 hr, and the resulting supernatant was used as the cytosol fraction of the cells. The concentration of the lysate or cytosol was adjusted to 1 mg protein/ml with an isotonic buffer. The phosphorylation experiment of the 72 kDa tyrosine kinase contained in the lysate or cytosol was carried out in the following manner.
An assay buffer [150 mM NaCl, 10 mM KCl, 20 mM Tris (pH 7.5), 0.6 mM MnCl2, 0.5 mM EGTA, 5 mM NaF, 1 mM sodium pyrophosphate and 1 mM sodium orthovanadate] containing the lysate or cytosol in an amount corresponding to […] of protein was incubated together with the compound 101 at 30° C. for 3 min. After adding […] of the peptide in the TAM region containing the phosphorylated tyrosine and […] of ATP, the incubation was further effected at 30° C. for 15 min. After the completion of the reaction, the sample was electrophoresed on a 10% […] gel and a tyrosine kinase of 72 kDa was separated. The activation of this kinase was confirmed by examining the phosphorylation of the tyrosine moiety in the kinase per se by western blotting with the use of anti-tyrosine phosphorylation antibody. Then the extent of the phosphorylation was numerically expressed by using an image analyzer and thus the tyrosine kinase phosphorylation inhibitory ratio of the compound 101 was determined

[2] = biological target: T2, tyrosine kinase of 72 kDa (Rattus norvegicus, UniProt Q64725); assay: Inhibition of activation (phosphorylation) of tyrosine kinase of 72 kDa due to antigenic stimulation in RBL-2H3 cells; assay type: cell-based
T2 construct: endogenous in cells; host or cells: RBL-2H3 cells
Description: RBL-2H3 cells were incubated for 10 min together with a test compound in a PBS buffer containing 0.1% of BSA and 1 mM of calcium. Next, the cells were reacted with an antigen specific for the IgE receptor for 10 min. After the completion of the antigenic stimulation, the cells were allowed to stand in ice for 1 hr in a 10 mM phosphate buffer (pH 7.5) containing a lysis buffer (1% Triton X-100, 0.1% SDS, 0.5% sodium deoxycholate, 50 mM NaCl, 50 mM NaF, 1 mM phenylmethyl sulfonyl fluoride, 50 μg/ml eupeptin, 10 unit/ml aprotonin) and 0.1% of NaN3 followed by centrifugation to give a cell lysate. This lysate was diluted with a buffer for electrophoresis, heated (95° C., 5 min) and then electrophoresed on a 10% SDS-polyacrylamide gel. After the electrophoresis, the sample was electrically transcribed onto a 0.2 μm nitrocellulose membrane and treated with an anti-phosphotyrosine antibody for 1 hr. Then the inhibitory activity was evaluated by the coloring analysis through chemiluminescence.

[3] = [3H]-serotonin release, IgE-sensitized RBL-2H3 cells, antigen stimulation, read-out: IC50 (μM) in serotonin liberation from RBL-2H3 cells
[4] = histamine, read-out: IC50 (μM) in mediator liberation from human basophils: histamine
[5] = peptide leukotriene, read-out: IC50 (μM) in mediator liberation from human basophils: leukotriene

T2 sequence (Q64725 whole entry): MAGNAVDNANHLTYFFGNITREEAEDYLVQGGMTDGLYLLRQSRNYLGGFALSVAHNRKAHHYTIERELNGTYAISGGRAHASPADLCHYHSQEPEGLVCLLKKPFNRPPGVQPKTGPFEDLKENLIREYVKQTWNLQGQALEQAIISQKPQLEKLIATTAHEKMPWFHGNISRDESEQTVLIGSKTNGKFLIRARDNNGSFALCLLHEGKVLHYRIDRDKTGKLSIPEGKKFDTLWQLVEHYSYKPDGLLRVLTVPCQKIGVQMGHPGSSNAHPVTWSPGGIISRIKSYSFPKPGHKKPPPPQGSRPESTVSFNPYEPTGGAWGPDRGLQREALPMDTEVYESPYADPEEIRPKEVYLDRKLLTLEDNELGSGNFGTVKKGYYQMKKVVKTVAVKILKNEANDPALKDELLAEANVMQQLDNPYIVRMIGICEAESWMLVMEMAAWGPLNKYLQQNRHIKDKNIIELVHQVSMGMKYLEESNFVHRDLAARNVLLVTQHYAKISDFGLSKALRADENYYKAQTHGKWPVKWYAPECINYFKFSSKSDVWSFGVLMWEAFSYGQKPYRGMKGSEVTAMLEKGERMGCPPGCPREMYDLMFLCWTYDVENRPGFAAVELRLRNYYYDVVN
T1 sequence (Q64725 whole entry): as above

Structure (SMILES)	IC50 (RBL-2H3 cells; [3]) [µM]	IC50 (human basophils; [4]) [µM]	IC50 (human basophils; [5]) [µM]	Inhibitory Strength (%) [1] [%]	Inhibitory Strength (%) ([2]; Conc. of Compd. 10 μM)	Inhibitory Strength (%) ([2]; Conc. of Compd. 3 μM)	Inhibitory Strength (%) ([2]; Conc. of Compd. 30 μM)	IC50 (RBL-2H3 cells; RBL-2H3, read-out: IC50 (μM) in serotonin liberation from RBL-2H3 cells) [µM]
Cc1ccc2c(c1C)N(CCCN1CCC(Cc3ccccc3)CC1)c1ccccc1[S+]2[O-] (stereo not drawn) [Example 127]	2	10 to 30	10	100	100			
Cc1ccc2c(c1C)N(CCNCc1ccccc1)c1ccccc1[S+]2[O-] (stereo not drawn) [Example 143, 1,2-Dimethyl-10-(2-benzylaminoethyl)phenothiazine-5-oxide]	3	< 10	< 10		100			
Cc1ccc2c(=NOCCC(=O)O)c3ccccc3n(CCCNCc3ccccc3)c2c1C [Example 235]	< 1	30	30			100		
Cc1ccc2c(c1C)N(CCCN(CCO)Cc1ccccc1)c1ccccc1[S+]2[O-] (stereo not drawn) [Example 105]	2	30	10 to 30			100		
Cc1ccc2c(c1C)N(CCCN(CC(=O)O)CC(=O)O)c1ccccc1[S+]2[O-] (stereo not drawn) [Example 132]	2					100		
Cc1ccc2c(=NOC(C)C(=O)O)c3ccccc3n(CCCNCc3ccccc3)c2c1C (stereo not drawn) [Example 236]	1					70		
Cc1ccc2c(c1C)N(CCCN1CCCCC1)c1ccccc1[S+]2[O-] (stereo not drawn) [Example 104]	< 3					100		
Cc1ccc2c(c1C)N(CCCN(CCO)Cc1ccccc1)c1ccccc1S2(=O)=O [Example 202]	6	10 to 30	< 10				80%	
Cc1ccc2c(c1C)N(CCCNCc1ccccc1)c1ccccc1[S+]2[O-] (stereo not drawn) [Example 22, 1,2-Dimethyl-10-(3-benzylaminopropyl)-phenothiazine-5-oxide]	0.1	10 to 30	10	80		100		
Cc1ccc2c(c1C)N(CCCN1CCC(C(=O)O)CC1)c1ccccc1[S+]2[O-] (stereo not drawn) [Example 129]	< 1					100		
Cc1ccc2c(c1C)N(CCCN)c1ccccc1[S+]2[O-] (stereo not drawn) [Example 8, 1,2-Dimethyl-10-(3-aminopropyl)phenothiazine-5-oxide]	0.1					100		
Cc1ccc2c(c1C)N(CCCCNCc1ccccc1)c1ccccc1[S+]2[O-] (stereo not drawn) [Example 139]	2	30 to 100	10 to 30		100			
Cc1ccc2c(c1C)N(CCCNCc1ccccc1)c1cc(CCO)ccc1[S+]2[O-] (stereo not drawn) [Example 94]	< 1	30 to 100	10			100		
Cc1ccc2c(c1C)N(CCCN1CCN(S(=O)(=O)c3ccccc3)CC1)c1ccccc1[S+]2[O-] (stereo not drawn) [Example 115]	3	30 to 100	10		80			
Cc1ccc2c(c1C)N(CCCNc1ccccc1)c1ccccc1[S+]2[O-] (stereo not drawn) [Example 123]	3	30	10 to 30				100%	
Cc1ccc2c(c1C)N(CCCNCc1ccccc1)c1cc(CCO)ccc1S2(=O)=O [Example 201]	10	10	< 10				30-70%	
Cc1ccc2c(c1C)N(C/C=C/CNCc1ccccc1)c1ccccc1[S+]2[O-] (stereo not drawn) [Example 138, 1,2-Dimethyl-10-[4-benzylamino(2-butenyl)]phenothiazine-5-oxide]	3	10 to 30	10		100			
Cc1ccc2c(c1C)N(CCCNCc1ccccc1)c1ccccc1S2(=O)=O [Example 200]	0.4						70%	
Cc1ccc2c(c1C)N(CCCNCc1ccccc1)c1cccc(CC(=O)O)c1[S+]2[O-] (stereo not drawn) [Example 262]	8						100%	

Structure (SMILES)	IC50 (RBL-2H3 cells; [3]) [µM]	IC50 (human basophils; [4]) [µM]	IC50 (human basophils; [5]) [µM]	Inhibitory Strength (%) [1] [%]	Inhibitory Strength (%) ([2]; Conc. of Compd. 10 μM)	Inhibitory Strength (%) ([2]; Conc. of Compd. 3 μM)	Inhibitory Strength (%) ([2]; Conc. of Compd. 30 μM)	IC50 (RBL-2H3 cells; RBL-2H3, read-out: IC50 (μM) in serotonin liberation from RBL-2H3 cells) [µM]
Cc1ccc2c(c1C)N(CCCNCc1ccccc1)c1cc(Cl)ccc1[S+]2[O-] (stereo not drawn) [Example 84]	2	< 3	< 3					
Cc1ccc2c(c1C)N(CCCN1CCc3ccccc3C1)c1ccccc1[S+]2[O-] (stereo not drawn) [Example 108]	2	30	10 to 30					
COc1ccsc1CNCCCN1c2ccccc2[S+]([O-])c2ccc(C)c(C)c21 (stereo not drawn) [Example 66]	0.5	< 3	< 3					
Cc1ccc2c(c1C)N(CCCN(C)Cc1cccc(C)c1O)c1ccccc1[S+]2[O-] (stereo not drawn) [Example 168]	2	< 10	< 10					
COc1ccc2c(c1)N(CCCN(C)Cc1ccccc1O)c1c(ccc(C)c1C)[S+]2[O-] (stereo not drawn) [Example 189]	0.8	3 to 10	3 to 10					
Cc1ccc2c(c1C)N(CCN(C)Cc1ccccc1O)c1ccccc1[S+]2[O-] (stereo not drawn) [Example 179]	2	10 to 30	3 to 10		100			
Cc1ccc2c(c1C)N(Cc1cccc(CN3CCN(Cc4ccccc4)CC3)n1)c1ccccc1[S+]2[O-] (stereo not drawn) [Example 122]	3	10 to 30	< 10					
Cc1ccc2c(c1C)N(CCCNCc1cc(O)ccc1O)c1ccccc1[S+]2[O-] (stereo not drawn) [Example 33]	1	10 to 30	10					
Cc1ccc2c(c1C)N(CCNCc1c(O)cccc1O)c1ccccc1[S+]2[O-] (stereo not drawn) [Example 150]	1	10 to 30	3 to 10					
Cc1ccc2c(c1C)N(CCCN)c1ccccc1S2(=O)=O [Example 196, 1,2-Dimethyl-10-(3-aminopropyl)phenothiazine-5,5-dioxide]	5						30%	
Cc1ccc2c(c1C)N(CCNCc1ccccc1CO)c1ccccc1[S+]2[O-] (stereo not drawn) [Example 156]	3	10	10					
Cc1ccc2c(c1C)N(CCCN1CCC(O)(c3ccccc3)CC1)c1ccccc1[S+]2[O-] (stereo not drawn) [Example 124]		10 to 30	10	100	100			2
COc1csc(CNCCCN2c3ccccc3[S+]([O-])c3ccc(C)c(C)c32)c1 (stereo not drawn) [Example 73]	2	3 to 10	3 to 10					
Cc1ccc2c(c1C)N(CCCN(C)Cc1cc(O)ccc1O)c1ccccc1[S+]2[O-] (stereo not drawn) [Example 171]	0.8	3 to 10	3 to 10					
Cc1ccc2c(c1C)N(CCCN(Cc1ccccc1O)CC(O)CO)c1ccccc1[S+]2[O-] (stereo not drawn) [Example 137]	1	10 to 30	3					
COc1ccsc1CNCCCN1c2cccc(Cl)c2[S+]([O-])c2ccc(C)c(C)c21 (stereo not drawn) [Example 83]	2	10	10 to 30					
COCc1cccc(CNCCN2c3ccccc3[S+]([O-])c3ccc(C)c(C)c32)c1O (stereo not drawn) [Example 151]	2	10 to 30	3 to 10					
COCOc1c(Cl)cccc1CNCCCN1c2ccccc2[S+]([O-])c2ccc(C)c(C)c21 (stereo not drawn) [Example 48]	0.3	3 to 10	3					

From patent US6703388B2, “Nitrogen-containing tricyclic compounds and drugs containing the same” (Eisai Co., Ltd., priority 1996, dated 2004)
